Laboratory results taken from patent US20250297232A1, “BACTERIAL MYELOPEROXIDASE-CATALASE AND APPLICATIONS THEREOF” (UNIVERSITÉ DE BORDEAUX, priority 2022, published 2025).
Several values for one entry are separate records, joined by “and”; a condition that tells them apart may be missing. Equal entries are not always repeated. Where two headings read alike, the source gives them in different places.

Tests used:
[1] = system: Rhodopirellula baltica RbMPO variant D202A (of SEQ ID NO: 1); conditions: pH 7.5
Method: (§6) Initial rate measurements under steady state conditions were performed with a BioLogic SFM400 stopped-flow by using a single-mixing mode and an Xe/Hg lamp and a TC100/10 cell. […] At least five 120 s shots were monitored for each value of the substrate range with the following sample rates: 20 μs, 20 ms, 20 ms with 2000 points per period. Slopes were calculated from the average of the shorts for each concentration and kss (s^−1) were determined from the slopes using the following formula:
(§7) The collected data were analysed with Origin software, then saturation curves for each substrate were fitted either by non-linear regression with or without inhibition by excess of substrate (Eq. 1 and 2) with [S]the substrate of interest, or by linear regression (Eq. 3) with a the slope and b the y-intercept.
(§8) The stopped-flow was used to define the steady-state kinetic parameters of RbMPOs. […] From the averages of the curves obtained for each shot, the slopes in Abs.s^−1 were calculated and then converted into kss by the following relation:

[2] = system: Rhodopirellula baltica RbMPO, wild type, SEQ ID NO: 1; assay: Pre-steady-state kinetics: compound I formation and return to native state (stopped-flow, 412 nm); type: biochemical; conditions: for Vreturn (Sreturn/[enzyme]) / kreturn max (return to native state) / kreturn/K1/2 (return to native state): wt RbMPO […], H2O2 20 μM; for Ki: H2O2 excess
Method: In the first moment after an enzyme is mixed with a substrate, no product has been formed and no intermediates exist. The study of the next few milliseconds of the reaction is called pre-steady-state kinetics.
Kinetic parameters under pre-steady-state condition were performed with a Biologic SFM400 stopped-flow at 412 nm, 37° C. and with 50 mM sodium phosphate buffer at pH7.5. […] An exponential linear fit was applied to each kinetic using the following formula: […]
where p1 corresponds to the exponential magnitude, p2 to the decay time Tau (s) and
The heme Soret band is at 412 nm for the native Fe^III iron form, which is why the decrease in absorbance was followed at this particular wavelength as a function of time. The rate constant was measured using the A412nm curves as a function of time (data not shown). By applying Eq.4 to the exponential part of each kinetic, the values of Tau (s) were determined and the kobs (s^−1) were calculated.
The return of the enzyme to its native state was studied by the impact of increasing concentrations of (pseudo)-halides substrates on compound I (FIG. 9B). […] It is the time difference (s) between the two characteristic steps that allowed the calculation of the values of the Vreturn(μM^−1.s^−1) values: […]

[3] = system: Rhodopirellula baltica RbMPO variant Q199A (of SEQ ID NO: 1)
Method: as §6, §7, §8

[4] = system: Rhodopirellula baltica RbMPO variant N317M (of SEQ ID NO: 1)
Method: as §6, §7, §8

[5] = system: Rhodopirellula baltica RbMPO variant H407A (of SEQ ID NO: 1)
Method: as §6, §7
(§9) From the averages of the curves obtained for each shot, the slopes in Abs.s^−1 were calculated and then converted into kss by the following relation:

[6] = system: Rhodopirellula baltica RbMPO variant E316A (of SEQ ID NO: 1)
Method: as §6, §7, §8

[7] = system: Rhodopirellula baltica RbMPO, wild type, SEQ ID NO: 1; conditions: for kcatapp/KMappNaSCN (NaBr range) / kss/[Cl^−] (k2): 79 μM H2O2; for kss/[Cl^−] (k2): NaCl range
Method: as §6, §7, §8

[8] = system: Rhodopirellula baltica RbMPO variant D202A, E316A (of SEQ ID NO: 1)
Excerpt: (§1) The chlorination activity of myeloperoxidases can be determined using the aminophenyl fluorescein (APF) probe. One can indeed detect the oxidation of APF (non-fluorescent) by HOCl into fluorescein, a fluorescent molecule that is detectable at λex=485 nm and λem=525 nm. According to such test, the fluorescence measured is proportional to the quantity of fluorescein, which itself is proportional to the quantity of HOCl produced by the myeloperoxidase.
(§2) Measurements of chlorination activity were herein performed in Corning 384-well clear-bottom (flat-bottom) plates with a reaction volume of 20 μL, in triplicate at 37° C., and in a 50 mM NaPi buffer at pH7.5. […] A 10 to 30 minutes kinetic was performed for each range value and the fluorescence intensity was compared to that of the standard fluorescein range. Thus, the measured fluorescence is proportional to the amount of fluorescein, which in turn is proportional to the amount of HOCl produced by the RbMPOs.
(§3) The slopes were measured at the onset of the reaction in order to be in initial velocity. From these values, it was possible to calculate the kss with the following equation: […]

[9] = system: Rhodopirellula baltica RbMPO variant N317M (of SEQ ID NO: 1); conditions: N317M 1 μM, H2O2 range, 500 mM NaCl, 10 μM APF, 37° C., pH7.5
Excerpt: as §1, §2, §3

[10] = system: Rhodopirellula baltica RbMPO variant Q199A (of SEQ ID NO: 1); conditions: Q199A 1 μM, H2O2 range, 500 mM NaCl, 10 μM APF, 37° C., pH7.5
[11] = system: Rhodopirellula baltica RbMPO, wild type, SEQ ID NO: 1; conditions: 37° C.; for Km: read-out: KM (catalase, H2O2); for Ki: read-out: Ki (catalase, H2O2)
Method: Catalase activity was measured using the stopped-flow set-up, which was configured to measure absorbance decay at 240 nm and at 37° C.

[12] = system: Rhodopirellula baltica RbMPO variant H407A (of SEQ ID NO: 1); conditions: read-out: KM H2O2; H407A 1 μM; H2O2 range, 500 mM NaCl, 10 μM APF, 37° C., pH7.5
[13] = system: Rhodopirellula baltica RbMPO variant D202A, E316A (of SEQ ID NO: 1); remark: listed apart in the source
Method: as §6, §7, §9

[14] = system: Rhodopirellula baltica RbMPO variant H203A (of SEQ ID NO: 1)
Method: as §6, §7, §9

[15] = system: Rhodopirellula baltica RbMPO, wild type, SEQ ID NO: 1; assay: Heme reconstitution (apo to holo) by tryptophan fluorescence quenching; type: binding; conditions: wt RbMPO 1 μM; 25° C., pH7.5
Method: (§4) Tryptophan fluorescence quenching and recovery can be used to monitor the protein confirmation changes from an “apo” to an “holo” form upon addition of its coenzyme (herein heme).
(§5) The Trp fluorescence quenching experiment was performed in a spectrofluorometric FP8300 with a temperature-controlled stirred-cell (25° C.). […] Sample dilutions were performed in a 50 mM pH7.5 sodium phosphate buffer.

[16] = target: Rhodopirellula baltica RbMPO variant D202A, E316A (of SEQ ID NO: 1); assay: as above; type: binding; conditions: E316A 1 μM, 25° C., pH7.5
Method: as §4, §5

[17] = system: Rhodopirellula baltica RbMPO variant Q199A (of SEQ ID NO: 1); assay: as above; type: binding; conditions: Q199A 1 μM; 25° C., pH7.5
Method: as §4, §5

[18] = system: Rhodopirellula baltica RbMPO variant H203A (of SEQ ID NO: 1); assay: as above; type: binding; conditions: H203A 1 μM; 25° C., pH7.5
Method: as §4, §5

[19] = system: Rhodopirellula baltica RbMPO variant H407A (of SEQ ID NO: 1); assay: as above; type: binding; conditions: H407A 1 μM; 25° C., pH7.5
Method: as §4, §5

[20] = system: Rhodopirellula baltica RbMPO variant D202A (of SEQ ID NO: 1); assay: as above; type: binding; conditions: D202A 1 μM; 25° C., pH7.5
Method: as §4, §5

[21] = system: Rhodopirellula baltica RbMPO variant N317M (of SEQ ID NO: 1); assay: as above; type: binding; conditions: N317M 1 μM; 25° C., pH7.5
Method: as §4, §5

[22] = system: Rhodopirellula baltica RbMPO variant E316A (of SEQ ID NO: 1); assay: as above; type: binding; conditions: E316A 1 μM; 25° C., pH7.5
Method: as §4, §5

[23] = system: Rhodopirellula baltica RbMPO, wild type, SEQ ID NO: 1; conditions: 0.5 nM wt RbMPO, 79 μM H2O2, 37° C., pH5.5
Method: The plate reader was configured to run a 10 min kinetics at 430 nm with the following ABTS concentration range: 0, 0.1, 0.2, 0.5, 1, 2, 5, 10, 15, 20, 30 and 40 mM.

[24] = wt, 300 nM enzyme, 79 μM H2O2, 37° C., pH 7.5
[25] = H2O2, wt RbMPO 1.78 μM, 37° C., pH7.5

N#C[S-].[Na+] [NaSCN]
kcatapp (NaSCN) [1]: 83.54 ± 12.04 s⁻¹ | Km ([1]; read-out: KMapp (NaSCN)): 980 ± 310 µM | Vreturn (Sreturn/[enzyme]) ([2]; 37° C., pH7.5): 13.65 ± 0.51 s⁻¹ | kreturn max (return to native state) ([2]; 37° C., pH7.5): 25.94 ± 0.97 µM/s | activity (NaSCN range) [3]: No activity | k2 (NaSCN) ([4]; pH 7.5): 1074 ± 53 M⁻¹ s⁻¹ | activity in presence of SCN [5]: not active | k2 (NaSCN) ([6]; pH 7.5): 1936 ± 374 M⁻¹ s⁻¹ | Km ([7]; read-out: KMapp (NaSCN), wt, 300 nM enzyme, 79 μM H2O2, 37° C., pH 7.5): 510 ± 80 µM | kcatapp (NaSCN) [7, 24]: 56.90 ± 6.92 s⁻¹

OO [H2O2, hydrogen peroxide]
Km ([8]; read-out: KM H2O2, E316A 1 μM, H2O2 range, 500 mM NaCl, 10 μM APF, 37° C., pH7.5): 220 ± 60 µM | Ki ([8]; read-out: Ki H2O2, E316A 1 μM, H2O2 range, 500 mM NaCl, 10 μM APF, 37° C., pH7.5): 96.3 ± 31.9 mM | Km ([9]; read-out: KM H2O2): 320 ± 90 µM | Ki ([9]; read-out: Ki H2O2): 48.1 ± 15.4 mM | Kd [2, 25]: 0.0569 ± 0.0201 mM | kobsmax (compound I formation) [2, 25]: 57.09 ± 8.60 s⁻¹ | Ki ([2]; read-out: Ki (compound I formation, text)): 10.9 mM | Ki ([2]; wt RbMPO 1.78 μM, 37° C., pH7.5, read-out: Ki (compound I formation)): 10.9 ± 3 mM | Km ([10]; read-out: KM H2O2): 490 ± 150 µM | Ki ([10]; read-out: Ki H2O2): 18.3 ± 5.34 mM | kcat (catalase, H2O2) ([11]; pH 7, 2 μM wt RbMPO): 1.62 ± 0.86 s⁻¹ | kcat (catalase, H2O2) ([11]; pH 7.5, 2 μM wt RbMPO): 56.64 ± 20.62 s⁻¹ | Km ([11]; pH 7, 2 μM wt RbMPO): 40 ± 40 µM | Km ([11]; pH 7.5, 2 μM wt RbMPO): 170 ± 110 µM | Ki ([11]; pH 7, 2 μM wt RbMPO): 0.54 ± 0.57 mM | Ki ([11]; pH 7.5, 2 μM wt RbMPO): 1.07 ± 0.7 mM | Km [12]: 270 ± 90 µM | kcatapp (H2O2) ([7]; H2O2 range, Br 100 mM, 267 nM wt RbMPO): 113.72 ± 72.11 s⁻¹ | kcatapp (H2O2) ([7]; H2O2 range, SCN 5 mM, 267 nM wt RbMPO): 203.24 ± 45.46 s⁻¹ | Km ([7]; read-out: KMapp (H2O2), H2O2 range, Br 100 mM, 267 nM wt RbMPO): 230 ± 210 µM | Km ([7]; read-out: KMapp (H2O2), H2O2 range, SCN 5 mM, 267 nM wt RbMPO): 120 ± 40 µM

[Br-].[Na+] [NaBr]
Vreturn (Sreturn/[enzyme]) ([2]; 37° C., pH7.5): 11.11 ± 0.57 s⁻¹ | kreturn max (return to native state) ([2]; 37° C., pH7.5): 21.11 ± 1.09 µM/s | kreturn/K1/2 (return to native state) ([2]; 37° C., pH7.5): 607.77 ± 161.51 M⁻¹ s⁻¹ | activity (NaBr range) [13]: No activity | kss/[SCN^−] (NaBr range) [3]: 78.19 ± 22.00 M⁻¹ s⁻¹ | kss/[SCN^−] (NaBr range) [4]: 2.22 ± 1.20 M⁻¹ s⁻¹ | kss/[SCN^−] (NaBr range) [14]: 73.94 ± 15.07 M⁻¹ s⁻¹ | activity (NaBr range) [6]: No activity | Km ([7]; read-out: KMapp (NaBr), wt, 300 nM enzyme, 79 μM H2O2, 37° C., pH 7.5): 133000 ± 32800 µM | kcatapp (NaBr) [7, 24]: 76.33 ± 5.12 s⁻¹ | kcatapp/KMappNaSCN (NaBr range) ([7]; wt, 300 nM enzyme): 576.86 ± 172.22 M⁻¹ s⁻¹ | kcatapp/KMappNaSCN (NaBr range) ([7]; wt, 300 nM enzyme, listed as Br^−): 576.96 ± 172.22 M⁻¹ s⁻¹

C=CC1=C(C)c2cc3[nH]c(cc4nc(cc5[nH]c(cc1n2)c(C)c5CCC(=O)O)C(CCC(=O)O)=C4C)c(C)c3C=C.[Fe+3] [heme]
k2 (heme reconstitution) [15]: 1430 ± 74.4 M⁻¹ s⁻¹ | Kd [16]: 0.0109 ± 0.00614 mM | Kobsmax (heme reconstitution) [16]: 0.28 ± 0.06 s⁻¹ | k2 (heme reconstitution) [17]: 1720 ± 133 M⁻¹ s⁻¹ | k2 (heme reconstitution) [18]: 1840 ± 167 M⁻¹ s⁻¹ | k2 (heme reconstitution) [19]: 1320 ± 18.9 M⁻¹ s⁻¹ | k2 (heme reconstitution) [20]: 302+23.4 M−1 · s−1 | k2 (heme reconstitution) [21]: 470.2 ± 57.8 M⁻¹ s⁻¹ and 472.2 ± 57.8 M⁻¹ s⁻¹ | k2 (heme reconstitution) [22]: 418 ± 34 M⁻¹ s⁻¹

CCn1c(=NN=c2sc3cc(S(=O)(=O)O)ccc3n2CC)sc2cc(S(=O)(=O)O)ccc21 [ABTS, 2,2′-azino-bis(3-ethylbenzothiazoline-6-sulfonic acid)]
k2 (peroxidase, ABTS) [23]: 10620 ± 1510 M⁻¹ s⁻¹

I [I^−]
Vreturn (Sreturn/[enzyme]) ([2]; 37° C., pH7.5): 16.66 ± 0.65 s⁻¹ | kreturn max (return to native state) ([2]; 37° C., pH7.5): 31.65 ± 1.23 µM/s

[Cl-].[Na+] [NaCl]
Vreturn (Sreturn/[enzyme]) ([2]; 37° C., pH7.5): 1.37 ± 0.19 s⁻¹ | kreturn max (return to native state) ([2]; 37° C., pH7.5): 2.61 ± 0.37 µM/s | kreturn/K1/2 (return to native state) ([2]; 37° C., pH7.5): 5169 ± 4872 M⁻¹ s⁻¹ | kss/[Cl^−] (k2) ([7]; wt, 300 nM enzyme): 5.46 ± 0.67 M⁻¹ s⁻¹ | kss/[Cl^−] (k2) ([7]; wt, 300 nM enzyme, listed as Cl^−): 4.48 ± 0.64 M⁻¹ s⁻¹
